25 compounds from EP4810508A1, “ARABINOSE DERIVATIVE COMPOUND, AND COMPOSITION COMPRISING SAME FOR PREVENTING OR TREATING DEGENERATIVE BRAIN DISEASES” (Digmbio. Inc., priority 2023, dated 2025) can be followed below.

Read-outs that look alike come from different tables or passages of the source.

The subject of this assay is HRE/Luc/HEK293 cells. Nature of the assay: HRE (Hypoxia Response Element) luciferase assay. The class given is cell-based, human. Particulars: for fold induction at 10 µM / fold induction at 100 µM: Homo sapiens; for HRE expression: low concentration of 1 µM. As to the method: • (a) HRE assay: Confirmation of increased in HRE expression levels by the test substance relative to the vehicle in HRE/Luc/HEK293 cells • * Less than a twofold increase at 100 µM, • ** More than a twofold increase at 100 µM, • *** More than a twofold increase at 10 µM, • **** More than a twofold increase at 1 µM, • Not performed.
It has been reported that in the brains of AD patients, blood supply is mostly insufficient, resulting in oxygen levels being up to 50% lower than those of normal individuals, leading to increased oxidative stress (ROS) and neuroinflammation. It has also been studied that when the HIF-1α (hypoxia inducible factor-1) factor binds to the HRE (hypoxia response element), it increases VEGF (vascular endothelial growth factor), which promotes the formation of new blood vessels, thereby increasing oxygen levels in the brain and helping to inhibit nerve cell damage.
A reporter gene containing luciferase, capable of verifying the level of HRE expression, was inserted into HEK-293 human embryonic kidney cells, and HRE/Luc/HEK293 cells were constructed by inserting a plasmid (HRE/Luc) with luciferase attached downstream of the HRE promoter that binds to HIF-1α using lipofectamine (Invitrogen).
To perform HRE luciferase analysis, HRE/Luc/HEK293 cells were seeded in 96-well culture plates at a cell density of 4 x 10^4 per well in minimal essential medium (MEM) containing 10% fetal bovine serum. After one day, the cell medium was removed and replaced with medium mixed with various concentrations of example compounds. Six hours after compound pretreatment, HRE/Luc/HEK293 cells were cultured under hypoxic conditions (O2 0.1%) for 18 hours. Subsequently, the cells were washed with phosphate buffer, lysed with lysis buffer, and then the luciferase reagent (Promega) for luciferase analysis was added. Afterward, changes in HRE expression levels associated with HIF-1 signaling were evaluated by measuring luminescence using an Infinite200 (Tecan).

[1] abbreviates: HEK293, 18 h, Table 2 (Examples 37-74, 52), read-out: HKt-increasing 10uM.
Where [2] appears, read: HEK293, 18 h, Table 2 (Examples 37-74, 52), read-out: HKt-increasing 100uM.
[3] abbreviates: HEK293, fold increase of HRE expression, hypoxic conditions (O2 0.1%) 18 hours, Table 2, read-out: HRE-increasing 10uM.
Where [4] appears, read: HEK293, fold increase of HRE expression, hypoxic conditions (O2 0.1%) 18 hours, Table 2, read-out: HRE-increasing 100uM.
The mark [5] stands for this setting: HEK293, 18 h, Table 2 (Examples 75-109, 114), read-out: HRE-inceasing 10uM.
Setting [6] is: HEK293, 18 h, Table 2 (Examples 75-109, 114), read-out: HRE-inceasing 100uM.

Consider `CC(C)c1ccc(Oc2ccc(O[C@H]3OC[C@@H](F)[C@H](O)[C@H]3O)cc2)cc1` [Example 64, (2R,3R,4R,5R)-5-fluoro-2-(4-(4-isopropylphenoxy)phenoxy)tetrahydro-2H-pyran-3,4-diol], for which the fold induction at 10 µM under setting [1] is 2.4. For the same compound, the fold induction at 100 µM under setting [2] stood at 2.3.
On to `COc1cc(Cc2ccc(O[C@H]3OC[C@H](O)[C@H](O)[C@H]3O)cc2)cc(OC)c1OC` [Example 18, (2R,3R,4S,5S)-2-(4-(3,4,5-trimethoxybenzyl)phenoxy) tetrahydro-2H-pyran-3,4,5-triol], for which the fold induction at 10 µM under setting [3] is 1.2. The fold induction at 100 µM under setting [4] stood at 1.3.
Turning to `CCOc1ccc(Cc2ccc(O[C@H]3OC[C@H](O)[C@H](O)[C@H]3O)cc2)cc1` [Example 39, (2R,3R,4S,5S)-2-(4-(4-ethoxybenzyl)phenoxy) tetrahydro-2H-pyran-3,4,5-triol], the fold induction at 10 µM under setting [1] was 1.1. Moreover, the fold induction at 100 µM under setting [2] is 1.3.
As to `COc1ccc(Cc2ccc(O[C@H]3OC[C@H](O)[C@H](O)[C@H]3N)cc2)cc1` [Example 78], the fold induction at 10 µM under setting [5] amounted to 12. Besides, under setting [6], the fold induction at 100 µM was found to be 2.4.
For the compound `COc1ccc(Cc2ccc(O[C@H]3OC[C@H](O)[C@H](O)[C@H]3O)cc2)cc1Cl` [Example 37, (2R,3R,4S,5S)-2-(4-(3-chloro-4-methoxybenzyl)phenoxy)tetrahydro-2H-pyran-3,4,5-triol], the fold induction at 10 µM under setting [1] came to 1.1. Further, the fold induction at 100 µM under setting [2] was found to be 1.3.
With `COc1ccc2oc(-c3ccc(O[C@H]4OC[C@H](O)[C@H](O)[C@H]4O)c(Cl)c3)nc2c1` [Example 103, (2R,3R,4S,5S)-2-(2-chloro-4-(5-methoxybenzo[d]oxazol-2-yl)phenoxy)tetrahydro-2H-pyran-3,4,5-triol], the fold induction at 10 µM under setting [5] turned out to be 2.6. Also, under setting [6], the fold induction at 100 µM was 2.9.
Take `COc1ccc(Cc2ccc(O[C@H]3OC[C@H](O)[C@H](O)[C@H]3OC)cc2)cc1` [Example 5, (3S,4S,5R,6R)-5-methoxy-6-(4-(4-methoxybenzyl)phenoxy)tetrahydro-2H-pyran-3,4-diol]: under setting [3], the fold induction at 10 µM is 1.2. The fold induction at 100 µM under setting [4] is 1.9.
`Cc1ccc2oc(-c3ccc(O[C@H]4OC[C@H](O)[C@H](O)[C@H]4O)c(F)c3)nc2c1` [Example 105, (2R,3R,4S,5S)-2-(2-fluoro-4-(5-methylbenzo[d]oxazol-2-yl)phenoxy)tetrahydro-2H-pyran 3,4,5-triol]: under setting [5], the fold induction at 10 µM stood at 2.5. For the same compound, the fold induction at 100 µM under setting [6] stood at 3.7.
As for `COc1ccc(Cc2ccc(O[C@H]3OC[C@H](O)[C@H](O)[C@H]3O)cc2)c(F)c1` [Example 50, (2R,3R,4S,5S)-2-(4-(2-fluoro-4-methoxybenzyl)phenoxy)tetrahydro-2H-pyran-3,4,5-triol], the fold induction at 10 µM under setting [1] is 1. Further, under setting [2], the fold induction at 100 µM turned out to be 1.4.
As for `CC(C)c1cccc2nc(-c3cccc(O[C@@H]4OC[C@H](O)[C@H](O)[C@H]4O)c3)oc12` [Example 98, (2S,3R,4S,5S)-2-(3-(7-isopropylbenzo[d]oxazol-2-yl)phenoxy)tetrahydro-2H-pyran-3,4,5-triol], the fold induction at 10 µM under setting [5] was 1.1. In addition, the fold induction at 100 µM under setting [6] worked out at 1.4.
With `O[C@@H]1[C@@H](O)[C@@H](Oc2ccc(Cc3cc(C(F)(F)F)cc(C(F)(F)F)c3)cc2)OC[C@@H]1O` [Example 16, (2R,3R,4S,5S)-2-(4-(3,5-bis(trifluoromethyl)benzyl)phenoxy) tetrahydro-2H-pyran-3,4,5-triol], the fold induction at 10 µM under setting [3] worked out at 1. Besides, the fold induction at 100 µM under setting [4] is < 1.
With `COc1ccc(Cc2ccc(O[C@H]3OC[C@H](O)[C@H](O)[C@H]3OC(=O)CCCCCCCCCN)cc2)cc1` [Example 79, (2R,3R,4S,5S)-4,5-dihydroxy-2-(4-(4-methoxybenzyl)phenoxy)tetrahydro-2H-pyran-3-yl 10-aminodecanoate], under setting [5], the fold induction at 10 µM came out at 1. The fold induction at 100 µM under setting [6] was 1.7.
As to `COc1ccc2oc(-c3cccc(O[C@H]4OC[C@H](O)[C@H](O)[C@H]4O)c3)nc2c1` [Example 107, (2R,3R,4S,5S)-2-(3-(5-methoxybenzo[d]oxazol-2-yl)phenoxy)tetrahydro-2H-pyran-3,4,5-triol], the HRE expression result is “more than threefold”. Further, the fold induction at 10 µM under setting [5] was 3.1. Besides, the fold induction at 100 µM under setting [6] came to 4.2.
For the compound `COc1ccc(-c2ccc(O[C@H]3OC[C@H](O)[C@H](O)[C@H]3O)cc2)cn1` [Example 85, (2R,3R,4S,5S)-2-(4-(6-methoxypyridin-3-yl)phenoxy)tetrahydro-2H-pyran-3,4,5-triol], under setting [5], the fold induction at 10 µM amounted to 1.3. Besides, under setting [6], the fold induction at 100 µM came out at 2.6.
In the same order, the values of `CC(C)c1ccc(-c2ccc(O[C@H]3OC[C@H](O)[C@H](O)[C@H]3O)cc2)cc1` [Example 86, (2R,3R,4S,5S)-2-((4'-isopropyl-[1,1'-biphenyl]-4-yl)oxy) tetrahydro-2 H-pyran-3,4,5-triol] are 1.9 and 3.2.
As to `Cc1cc(C)cc(Oc2ccc(O[C@H]3OC[C@H](O)[C@H](O)[C@H]3O)cc2)c1` [Example 34, (2R,3R,4S,5S)-2-(4-(3,5-dimethylphenoxy)phenoxy)tetrahydro-2H-pyran-3,4,5-triol], the fold induction at 10 µM under setting [3] came to 1.1. In addition, the fold induction at 100 µM under setting [4] is 1.
For `CC(C)c1ccc(Cc2ccc(O[C@H]3OC[C@H](O)[C@H](O)[C@H]3O)cc2F)cc1` [Example 48, (2R,3R,4S,5S)-2-(3-fluoro-4-(4-isopropylbenzyl)phenoxy)tetrahydro-2H-pyran-3,4,5-triol], under setting [1], the fold induction at 10 µM was 1.3. Moreover, under setting [2], the fold induction at 100 µM was 2.3.
In the case of `O=C(c1ccc(O[C@@H]2OC[C@H](O)[C@H](O)[C@H]2O)cc1)c1ccco1` [Example 114, furan-2-yl (4-(((2S,3R,4S,5S)-3,4,5-trihydroxytetrahydro-2H-pyran-2-yl)oxy)phenyl)methanone], under setting [5], the fold induction at 10 µM stood at 1.1. Also, under setting [6], the fold induction at 100 µM was 1.3.
For `COc1ccc(C(c2ccc(O[C@H]3OC[C@H](O)[C@H](O)[C@H]3O)cc2)(C(F)(F)F)C(F)(F)F)cc1` [Example 32, (2R,3R,4S,5S)-2-(4-(1,1,1,3,3,3-hexafluoro-2-(4-methoxyphenyl)propan-2-yl)phenoxy)tetrahydro-2H-pyran-3,4,5-triol], the fold induction at 10 µM under setting [3] was 1.3. Besides, the fold induction at 100 µM under setting [4] was found to be 1.8.
In the case of `COc1ccc(Cc2ccc(O[C@@H]3OC[C@H](O)[C@H](O)[C@H]3O)cc2)cc1` [Example 4], under setting [3], the fold induction at 10 µM stood at 1.1. For the same compound, the fold induction at 100 µM under setting [4] is < 1. Also, the HRE assay entry (increase in HRE expression levels by the test substance relative to the vehicle in HRE/Luc/HEK293 cells) is “α”.
For `Cc1ccc2oc(-c3ccc(O[C@@H]4OC[C@H](O)[C@H](O)[C@H]4O)cc3)nc2c1` [Example 108, (2S,3R,4S,5S)-2-(4-(5-methylbenzo[d]oxazol-2-yl)phenoxy)tetrahydro-2H-pyran-3,4,5-triol], the HRE expression result is listed as “more than threefold”. The fold induction at 10 µM under setting [5] came out at 3.6. Besides, the fold induction at 100 µM under setting [6] stood at 1.6.
For `CC(C)c1ccc(Oc2ccc(O[C@H]3OC[C@H](O)[C@H](O)[C@H]3N)cc2)cc1` [Example 70, (3S,4R,5R,6R)-5-amino-6-(4-(4-isopropylphenoxy)phenoxy)tetrahydro-2H-pyran-3,4-diol], the fold induction at 10 µM under setting [1] amounted to 1.2. For the same compound, the fold induction at 100 µM under setting [2] came to 3.1.
For the compound `COc1ccc2oc(-c3ccc(O[C@H]4OC[C@H](O)[C@H](O)[C@H]4O)cc3)nc2c1` [Example 91, (2R,3R,4S,5S)-2-(4-(5-methoxybenzo[d]oxazol-2-yl)phenoxy)tetrahydro-2H-pyran-3,4,5-triol], the fold induction at 10 µM under setting [5] worked out at 2.4. Also, the fold induction at 100 µM under setting [6] stood at 2.8.
Regarding `CC(C)c1ccc(Cc2ccc(O[C@H]3OC[C@H](O)[C@H](O)[C@H]3O)cc2Cl)cc1` [Example 40, (2R,3R,4S,5S)-2-(3-chloro-4-(4-isopropylbenzyl)phenoxy)tetrahydro-2H-pyran-3,4,5-triol], under setting [1], the fold induction at 10 µM is 2.6. The fold induction at 100 µM under setting [2] is 3.1.
`COc1ccc(Cc2ccc(O[C@H]3OC[C@H](O)[C@H](O)[C@H]3O)cc2Cl)cc1` [Example 38, (2R,3R,4S,5S)-2-(3-chloro-4-(4-methoxybenzyl)phenoxy)tetrahydro-2H-pyran-3,4,5-triol]: the fold induction at 10 µM under setting [1] was 1.3. For the same compound, under setting [2], the fold induction at 100 µM is 2.2.
